Source: patent EP4707280A1, “1,4-CINEOLE DERIVATIVE AND INTERMEDIATE THEREOF, HERBICIDE CONTAINING SAID DERIVATIVE AS ACTIVE INGREDIENT, METHOD FOR USING HERBICIDE, AND METHOD FOR PREPARING AGROCHEMICAL COMPOSITION” (HOKKO CHEMICAL INDUSTRY CO., LTD., priority 2023, dated 2024)

What was measured:
Assay type in all cases: in vivo
Scirpus juncoides [1] = assay: Test Example 6: herbicidal effect test by application during growth period of paddy rice (low dose); settings: Schoenoplectiella juncoides; 7.5 g per 10 ares; applied seven days after sowing, flooded pots; 14 days after application; read-out: weed inhibition rate
Procedure, shortened: (§1)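 Emulsifiable concentrate, water-diluted, dropped onto flooded paddy pots 7 days post-sowing at 7.5 g active ingredient/10 a. Greenhouse-grown weeds; percent inhibition scored at day 14 after treatment.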

[2] = tested on: Echinochloa crus-galli var. formosensis; assay: Test Example 1: herbicidal effect test by soil application in paddy rice; settings: 120 g active ingredient per 10 ares, applied immediately after sowing, flooded pots, 14 days after application; for pest or weed control at 1200 g/ha: Echinochloa crus-galli, soil, 336 h, read-out: weed inhibition rate
Procedure, shortened: (§2)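 Flooded-pot paddy assay: sow at 0–1 cm, flood to about 3 cm, then apply diluted emulsifiable concentrate by dropper, 120 g a.i. per 10 ares; greenhouse-grown.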

Scirpus juncoides [3] = assay: as above; settings: 120 g active ingredient per 10 ares, applied immediately after sowing, flooded pots, 14 days after application; for pest or weed control at 1200 g/ha: Schoenoplectiella juncoides, soil, 336 h, read-out: weed inhibition rate
Procedure, shortened: as §2

Echinochloa crus-galli [4] = assay: Test Example 3: herbicidal effect test by soil application in upland field; settings: Echinochloa crus-galli, 120 g per 10 ares, sprayed one day after sowing, 14 days after application, read-out: weed inhibition rate
Procedure, shortened: (§3)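 Weed inhibition (%) was assessed 14 days after treatment, in duplicate per concentration group. Seeds had been mixed into the upper 1 cm of upland alluvial loam, and the soil surface was sprayed one day later with the diluted emulsifiable concentrate at 120 g active ingredient per 10 ares.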

Digitaria ciliaris [5] = assay: as above; settings: Digitaria ciliaris, 120 g per 10 ares, sprayed one day after sowing, 14 days after application, read-out: weed inhibition rate
Procedure, shortened: as §3

Echinochloa crus-galli [6] = assay: Test Example 8: herbicidal effect test by stem and leaf treatment in upland field (low dose); settings: Echinochloa crus-galli; 7.5 g per 10 ares; sprayed seven days after sowing, upland soil; 14 days after application; read-out: weed inhibition rate
Digitaria ciliaris [7] = assay: as above; settings: Digitaria ciliaris; 7.5 g per 10 ares; sprayed seven days after sowing, upland soil; 14 days after application; read-out: weed inhibition rate
Monochoria vaginalis [8] = assay: Test Example 1: herbicidal effect test by soil application in paddy rice; settings: 120 g active ingredient per 10 ares, applied immediately after sowing, flooded pots, 14 days after application; for pest or weed control at 1200 g/ha: Pontederia vaginalis, soil, 336 h, read-out: weed inhibition rate
Procedure, shortened: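 Inhibition rate (%) read 14 days after treatment, duplicate pots. Water-diluted emulsifiable concentrate was applied by dropper at 120 g active ingredient/10 ares right after sowing. Seeds (30 per species, 0–1 cm deep) went into puddled paddy soil kept flooded at about 3 cm in a greenhouse.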

Amaranthus viridis = assay: Test Example 3: herbicidal effect test by soil application in upland field; settings: Amaranthus viridis, 120 g per 10 ares, sprayed one day after sowing, 14 days after application, read-out: weed inhibition rate
Procedure, shortened: as §3

Monochoria vaginalis [9] = assay: Test Example 6: herbicidal effect test by application during growth period of paddy rice (low dose); settings: Pontederia vaginalis; 7.5 g per 10 ares; applied seven days after sowing, flooded pots; 14 days after application; read-out: weed inhibition rate
Procedure, shortened: as §1

CO[C@H]1C[C@]2(C)O[C@@]1(C(C)C)C[C@H]2OCc1ccccc1C [1-151, (1 S,2R,4R,5S)-4-isopropyl-5-methoxy-l-methyl-2-((2-methylbenzyl)oxy)-7-oxabicyclo[2.2.1]heptane]
≥ 80%: inhibition at 75 g/ha (Scirpus juncoides [1]) | weed inhibition rate [2] | weed inhibition rate (Scirpus juncoides [3]) | inhibition at 1200 g/ha (Echinochloa crus-galli [4]) | inhibition at 1200 g/ha (Digitaria ciliaris [5]) | inhibition at 75 g/ha (Echinochloa crus-galli [6]) | inhibition at 75 g/ha (Digitaria ciliaris [7])

CCOC(C)O[C@H]1C[C@]2(C)O[C@@]1(C(C)C)C[C@H]2OCc1ccccc1C (stereo partly drawn) [1-208, (1R,2S,4S,5R)-2-(1-ethoxyethoxy)-1-isopropyl-4-methyl-5-((2-methylbenzyl)oxy)-7-oxabicyclo[2.2.1]heptane]
≥ 80%: pest or weed control at 1200 g/ha (Monochoria vaginalis [8]) | pest or weed control at 1200 g/ha [2] | pest or weed control at 1200 g/ha (Scirpus juncoides [3]) | inhibition at 1200 g/ha (Echinochloa crus-galli [4]) | inhibition at 1200 g/ha (Digitaria ciliaris [5]) | inhibition at 1200 g/ha (Amaranthus viridis) | inhibition at 75 g/ha (Echinochloa crus-galli [6])

CCOC(C)O[C@H]1C[C@]2(C)O[C@@]1(C(C)C)C[C@H]2OCc1c(F)cccc1F (stereo partly drawn) [1-223, (1S,2R,4R,5S)-2-((2,6-difluorobenzyl)oxy)-5-(1-ethoxyethoxy)-4-isopropyl-1-methyl-7-oxabicyclo[2.2.1]heptane]
≥ 80%: pest or weed control at 1200 g/ha (Monochoria vaginalis [8]) | pest or weed control at 1200 g/ha [2] | pest or weed control at 1200 g/ha (Scirpus juncoides [3]) | inhibition at 1200 g/ha (Echinochloa crus-galli [4]) | inhibition at 1200 g/ha (Digitaria ciliaris [5]) | inhibition at 1200 g/ha (Amaranthus viridis) | inhibition at 75 g/ha (Echinochloa crus-galli [6])

CC(C)[C@]12C[C@@H](OCc3cccc(F)c3)[C@](C)(C[C@@H]1Br)O2 [1-690, (1S,2R,4R,5S)-5-bromo-2-[(3-fluorophenyl)methoxy]-1-methyl-4-isopropyl-7-oxabicyclo[2.2.1]heptane]
≥ 80%: pest or weed control at 1200 g/ha (Monochoria vaginalis [8]) | inhibition at 75 g/ha (Monochoria vaginalis [9]) | pest or weed control at 1200 g/ha [2] | pest or weed control at 1200 g/ha (Scirpus juncoides [3]) | inhibition at 1200 g/ha (Echinochloa crus-galli [4]) | inhibition at 1200 g/ha (Digitaria ciliaris [5]) | inhibition at 75 g/ha (Echinochloa crus-galli [6]) | inhibition at 75 g/ha (Digitaria ciliaris [7])

CC(C)[C@]12C[C@@H](OCc3ccccc3Br)[C@](C)(C[C@@H]1Br)O2 [1-694, (1S,2R,4R,5S)-5-bromo-2-[(2-bromophenyl)methoxy]-1-methyl-4-isopropyl-7-oxabicyclo[2.2.1]heptane]
≥ 80%: pest or weed control at 1200 g/ha (Monochoria vaginalis [8]) | inhibition at 75 g/ha (Monochoria vaginalis [9]) | pest or weed control at 1200 g/ha [2] | inhibition at 1200 g/ha (Echinochloa crus-galli [4]) | inhibition at 1200 g/ha (Digitaria ciliaris [5]) | inhibition at 1200 g/ha (Amaranthus viridis) | inhibition at 75 g/ha (Echinochloa crus-galli [6])

CC(C)[C@]12C[C@@H](OCc3c(F)cccc3Cl)[C@](C)(C[C@@H]1Br)O2 [1-713, (1S,2R,4R,5S)-5-bromo-2-[(2-chloro-6-fluorophenyl)methoxy]-1-methyl-4-isopropyl-7-oxabicyclo[2.2.1]heptane]
≥ 80%: pest or weed control at 1200 g/ha (Monochoria vaginalis [8]) | inhibition at 75 g/ha (Monochoria vaginalis [9]) | pest or weed control at 1200 g/ha [2] | pest or weed control at 1200 g/ha (Scirpus juncoides [3]) | inhibition at 1200 g/ha (Echinochloa crus-galli [4]) | inhibition at 1200 g/ha (Digitaria ciliaris [5]) | inhibition at 75 g/ha (Echinochloa crus-galli [6]) | inhibition at 75 g/ha (Digitaria ciliaris [7])

CC(C)[C@]12C[C@@H](OCc3cccs3)[C@](C)(C[C@@H]1Br)O2 [1-721, (1S,2R,4R,5S)-5-bromo-1-methyl-4-isopropyl-2-(thiophen-2-ylmethoxy)-7-oxabicyclo[2.2.1]heptane]
≥ 80%: pest or weed control at 1200 g/ha (Monochoria vaginalis [8]) | inhibition at 75 g/ha (Monochoria vaginalis [9]) | pest or weed control at 1200 g/ha [2] | pest or weed control at 1200 g/ha (Scirpus juncoides [3]) | inhibition at 1200 g/ha (Echinochloa crus-galli [4]) | inhibition at 1200 g/ha (Digitaria ciliaris [5]) | inhibition at 75 g/ha (Echinochloa crus-galli [6]) | inhibition at 75 g/ha (Digitaria ciliaris [7])

CC(C)[C@]12C[C@@H](OCc3ccccc3F)[C@](C)(C[C@@H]1I)O2 [1-753, (1S,2R,4R,SS)-2-[(2-fluorophenyl)methoxy]-5-iodo-1-methyl-4-isopropyl-7-oxabicyclo[2.2.1]heptane]
≥ 80%: weed inhibition rate (Monochoria vaginalis [8]) | inhibition at 75 g/ha (Monochoria vaginalis [9]) | weed inhibition rate [2] | weed inhibition rate (Scirpus juncoides [3]) | inhibition at 1200 g/ha (Echinochloa crus-galli [4]) | inhibition at 1200 g/ha (Digitaria ciliaris [5]) | inhibition at 1200 g/ha (Amaranthus viridis) | inhibition at 75 g/ha (Echinochloa crus-galli [6])

CC(C)[C@]12C[C@@H](OCc3c(F)cccc3Br)[C@](C)(C[C@@H]1Br)O2 [1-1600, (1S,2R,4R,5S)-5-bromo-2-[(2-bromo-6-fluorophenyl)methoxy]-1-methyl-4-isopropyl-7-oxabicyclo[2.2.1]heptane]
≥ 80%: pest or weed control at 1200 g/ha (Monochoria vaginalis [8]) | inhibition at 75 g/ha (Monochoria vaginalis [9]) | pest or weed control at 1200 g/ha [2] | pest or weed control at 1200 g/ha (Scirpus juncoides [3]) | inhibition at 1200 g/ha (Echinochloa crus-galli [4]) | inhibition at 1200 g/ha (Digitaria ciliaris [5]) | inhibition at 75 g/ha (Echinochloa crus-galli [6]) | inhibition at 75 g/ha (Digitaria ciliaris [7])

C=CCO[C@H]1C[C@]2(C)O[C@@]1(C(C)C)C[C@H]2OCc1ccccc1F [1-1602, (1S,2R,4R,5S)-2-[(2-fluorophenyl)methoxy]-1-methyl-4-isopropyl-5-prop-2-enoxy-7-oxabicyclo[2.2.1]heptane]
≥ 80%: inhibition at 75 g/ha (Monochoria vaginalis [9]) | inhibition at 75 g/ha (Scirpus juncoides [1]) | pest or weed control at 1200 g/ha [2] | pest or weed control at 1200 g/ha (Scirpus juncoides [3]) | inhibition at 1200 g/ha (Echinochloa crus-galli [4]) | inhibition at 1200 g/ha (Digitaria ciliaris [5]) | inhibition at 75 g/ha (Echinochloa crus-galli [6]) | inhibition at 75 g/ha (Digitaria ciliaris [7])

CCCO[C@H]1C[C@]2(C)O[C@@]1(C(C)C)C[C@H]2OCc1ccccc1F [1-1604, (1S,2R,4R,SS)-2-[(2-fluorophenyl)methoxy]-1-methyl-4-isopropyl-5-propoxy-7-oxabicyclo[2.2.1]heptane]
≥ 80%: weed inhibition rate (Monochoria vaginalis [8]) | inhibition at 75 g/ha (Monochoria vaginalis [9]) | weed inhibition rate [2] | weed inhibition rate (Scirpus juncoides [3]) | inhibition at 1200 g/ha (Echinochloa crus-galli [4]) | inhibition at 1200 g/ha (Digitaria ciliaris [5]) | inhibition at 75 g/ha (Echinochloa crus-galli [6]) | inhibition at 75 g/ha (Digitaria ciliaris [7])

CC(C)[C@]12C[C@@H](OCc3ccccc3Br)[C@](C)(CC1=O)O2 [2-13, (1R,4S,5R)-5-((2-bromobenzyl)oxy)-1-isopropyl-4-methyl-7-oxabicyclo[2.2.1]heptan-2-one]
≥ 80%: pest or weed control at 1200 g/ha (Monochoria vaginalis [8]) | inhibition at 75 g/ha (Monochoria vaginalis [9]) | pest or weed control at 1200 g/ha [2] | pest or weed control at 1200 g/ha (Scirpus juncoides [3]) | inhibition at 1200 g/ha (Echinochloa crus-galli [4]) | inhibition at 1200 g/ha (Digitaria ciliaris [5]) | inhibition at 75 g/ha (Echinochloa crus-galli [6]) | inhibition at 75 g/ha (Digitaria ciliaris [7])

CC(C)[C@]12C[C@@H](OCc3c(F)cccc3Cl)[C@](C)(CC1=O)O2 [2-28, (1R,4S,5R)-5-((2-chloro-6-fluorobenzyl)oxy)-1-isopropyl-4-methyl-7-oxabicyclo[2.2.1]heptan-2-one]
≥ 80%: pest or weed control at 1200 g/ha (Monochoria vaginalis [8]) | inhibition at 75 g/ha (Monochoria vaginalis [9]) | pest or weed control at 1200 g/ha [2] | pest or weed control at 1200 g/ha (Scirpus juncoides [3]) | inhibition at 1200 g/ha (Echinochloa crus-galli [4]) | inhibition at 1200 g/ha (Digitaria ciliaris [5]) | inhibition at 75 g/ha (Echinochloa crus-galli [6]) | inhibition at 75 g/ha (Digitaria ciliaris [7])

Cc1ccccc1CO[C@@H]1C[C@]2(C(C)C)O[C@@]1(C)C/C2=N\O [2-191, (1R,4S,5R,E)-1-isopropyl-4-methyl-5-((2-methylbenzyl)oxy)-7-oxabicyclo[2.2.1]heptan-2-one oxime]
≥ 80%: pest or weed control at 1200 g/ha (Monochoria vaginalis [8]) | inhibition at 75 g/ha (Monochoria vaginalis [9]) | pest or weed control at 1200 g/ha [2] | pest or weed control at 1200 g/ha (Scirpus juncoides [3]) | inhibition at 1200 g/ha (Echinochloa crus-galli [4]) | inhibition at 1200 g/ha (Digitaria ciliaris [5]) | inhibition at 75 g/ha (Echinochloa crus-galli [6]) | inhibition at 75 g/ha (Digitaria ciliaris [7])

CC(C)[C@]12C[C@@H](OCc3ccccc3F)[C@](C)(C/C1=N\O)O2 [2-197, (1R,4S,5R,E)-5-((2-fluorobenzyl)oxy)-1-isopropyl-4-methyl-7-oxabicyclo[2.2.1]heptan-2-one oxime]
≥ 80%: pest or weed control at 1200 g/ha (Monochoria vaginalis [8]) | inhibition at 75 g/ha (Monochoria vaginalis [9]) | pest or weed control at 1200 g/ha [2] | pest or weed control at 1200 g/ha (Scirpus juncoides [3]) | inhibition at 1200 g/ha (Echinochloa crus-galli [4]) | inhibition at 1200 g/ha (Digitaria ciliaris [5]) | inhibition at 1200 g/ha (Amaranthus viridis) | inhibition at 75 g/ha (Echinochloa crus-galli [6]) | inhibition at 75 g/ha (Digitaria ciliaris [7])

CC(C)[C@]12C=C[C@](C)(O1)[C@H](OCc1c(F)cccc1F)C2 [3-7, (1R,4S,5R)-5-[(2,6-difluorophenyl)methoxy]-4-methyl-1-isopropyl-7-oxabicyclo[2.2.1]hept-2-ene]
≥ 80%: pest or weed control at 1200 g/ha (Monochoria vaginalis [8]) | inhibition at 75 g/ha (Scirpus juncoides [1]) | pest or weed control at 1200 g/ha [2] | pest or weed control at 1200 g/ha (Scirpus juncoides [3]) | inhibition at 1200 g/ha (Echinochloa crus-galli [4]) | inhibition at 1200 g/ha (Digitaria ciliaris [5]) | inhibition at 75 g/ha (Echinochloa crus-galli [6]) | inhibition at 75 g/ha (Digitaria ciliaris [7])
